Earlier results as cited in patent US12533334B2, “Compositions and methods for modulating equine fatty acid profiles” (KENTUCKY EQUINE RESEARCH, INC., priority 2021, dated 2026).

Test system: aspirin-induced gastric hemorrhage
Details: rats subjected to aspirin-induced gastric hemorrhage, dietary supplementation

Row | SMILES | Gastric hemorrhage
1 | CCCCC/C=C\C/C=C\C/C=C\CCCCC(=O)O [GLA, gamma linolenic acid] | no gastric hemorrhage
2 | CCCCC/C=C\C/C=C\CCCCCCCC(=O)O [LA, linoleic acid] | 3 of 8
